Earlier results, collected in patent US7056909B2, “Alpha v integrin receptor antagonists” (Merck & Co., Inc., priority 2000, dated 2006).

Conditions: postmenopausal osteoporotic women, median of 22 months of treatment

## hPTH(1–34): human parathyroid hormone 1-34 fragment (SVSEIQLMHNLGKHLNSMERVEWLRKKLQDVHNF; Parathyroid hormone; UniProt P01270 32-65, looked up, fragment)
  reduction in nonvertebral fractures: 54%
  reduction in spine fractures: ≥ 65%
